Target: T1, human PAH with the R408W mutation (A375 R408W cells) (Homo sapiens, UniProt P00439, R408W)
T1 construct: expressed in transfected cells
T1 sequence (P00439 1-452 R408W): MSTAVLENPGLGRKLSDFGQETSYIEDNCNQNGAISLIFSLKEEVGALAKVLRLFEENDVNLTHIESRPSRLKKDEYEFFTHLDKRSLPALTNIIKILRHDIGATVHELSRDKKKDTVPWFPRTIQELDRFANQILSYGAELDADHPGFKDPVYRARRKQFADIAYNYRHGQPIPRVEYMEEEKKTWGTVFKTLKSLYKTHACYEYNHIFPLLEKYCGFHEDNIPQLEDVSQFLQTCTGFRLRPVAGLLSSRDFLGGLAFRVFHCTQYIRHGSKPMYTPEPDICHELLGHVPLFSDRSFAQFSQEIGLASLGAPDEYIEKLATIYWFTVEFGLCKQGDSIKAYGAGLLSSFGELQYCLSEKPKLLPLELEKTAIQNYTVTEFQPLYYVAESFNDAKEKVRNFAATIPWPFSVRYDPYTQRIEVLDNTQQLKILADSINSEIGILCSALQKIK
Experiment: Cell Based Phenylalanine Flux Assay
Details: 24 hrs with compound, then 20 μM sepiapterin and 800 μM 13C9,15N-Phenylalanine for 4 hours, 13C-Tyrosine by LC-MS, average where tested multiple times
Method in brief: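 A375 cells stably expressing lentiviral human PAH R408W were treated with compounds (10-point 2-fold dilutions, 0.5% DMSO, duplicate) for 24 h at 37 °C. Then 20 μM sepiapterin and 800 μM 13C9,15N-Phe were added for 4 h; media 13C-Tyr was measured by LC-MS to give AC50.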

[1] = A375 cells expressing R408W PAH

SMILES | AC50 (A375 R408W cells) [µM] | AC50 [1] [µM]
O=C(c1cnn2cc(N3CCOCC3)ccc12)N1CCc2[nH]cnc2[C@@H]1c1nc2c(F)cccc2o1 [Example 503, (R)-(4-(4-fluorobenzo[d]oxazol-2-yl)-6,7-dihydro-1H-imidazo[4,5-c]pyridin-5(4H)-yl)(6-morpholinopyrazolo[1,5-a]pyridin-3-yl)methanone] | ≥ 5 | 
Cn1ncnc1C(=O)N1CCc2[nH]cnc2C1c1nc2ccccc2o1 (centres unmarked) |  | 1 to 5
O=C(c1ocnc1C(F)(F)F)N1CCc2[nH]cnc2[C@H]1c1nc2ccc(Br)cc2o1 [Example 143, (S)-(4-(6-bromobenzo[d]oxazol-2-yl)-6,7-dihydro-1H-imidazo[4,5-c]pyridin-5(4H)-yl)(4-(trifluoromethyl)oxazol-5-yl)methanone] | ≤ 0.5 | 
CC1CN(C(=O)c2oc(C(C)(C)O)nc2C(F)F)C(c2nc3cc(F)ccc3o2)c2nc[nH]c21 (centres unmarked) |  | 1 to 5
COc1ccc2oc(C3c4nc[nH]c4CCN3C(=O)c3cnc(C(C)(C)O)o3)nc2c1 (centres unmarked) |  | ≥ 5
